Data reported in US8673910B2, “Proteasome inhibitors for selectively inducing apoptosis in cancer cells” (H. Lee Moffitt Cancer Center and Research Institute, priority 2008, dated 2014).

Compared with `O=C(NS(=O)(=O)c1ccc(NC2=C(Cl)C(=O)c3ccccc3C2=O)cc1)c1ccccc1` [Compound 2c, N-(4-(3-chloro-1,4-dioxo-1,4-dihydronaphthalen-2-ylamino)phenylsulfonyl)benzamide], `CC1=C(Nc2ccc(S(=O)(=O)NC(=O)c3ccccc3)cc2)C(=O)c2ccccc2C1=O` [Compound 2l, N-(4-(3-methyl-1,4-dioxo-1,4-dihydronaphthalen-2-ylamino)phenylsulfonyl)benzamide] is higher in melting point: 216 to 217 °C for the first, 235 to 237 °C for the second.

First: COc1cnc(NS(=O)(=O)c2ccc(NC3=C(Cl)C(=O)c4ccccc4C3=O)cc2)nc1 [Compound 2e, 4-(3-chloro-1,4-dioxo-1,4-dihydronaphthalen-2-ylamino)-N-(5-methoxypyrimidin-2-yl)benzenesulfonamide]
Second: COc1cnc(NS(=O)(=O)c2ccc(NC3=C(C)C(=O)c4ccccc4C3=O)cc2)nc1 [Compound 2m, N-(5-methoxypyrimidin-2-yl)-4-(3-methyl-1,4-dioxo-1,4-dihydronaphthalen-2-ylamino)-benzenesulfonamide]
The melting point of the first is higher: 269 to 271 °C for the first, 215 to 217 °C for the second.

First: COc1cc(NS(=O)(=O)c2ccc(NC3=C(Cl)C(=O)c4ccccc4C3=O)cc2)nc(OC)n1 [Compound 2i, 4-(3-chloro-1,4-dioxo-1,4-dihydronaphthalen-2-ylamino)-N-(2,6-dimethoxypyrimidin-4-yl)-benzenesulfonamide]
Second: COc1cc(NS(=O)(=O)c2ccc(NC3=C(C)C(=O)c4ccccc4C3=O)cc2)nc(OC)n1 [Compound 2n, N-(2,6-dimethoxypyrimidin-4-yl)-4-(3-methyl-1,4-dioxo-1,4-dihydronaphthalen-2-ylamino)-benzenesulfonamide]
The melting point of the first is lower: 220 to 222 °C for the first, 255 to 257 °C for the second.

First: Cc1ccnc(NS(=O)(=O)c2ccc(NC3=C(Cl)C(=O)c4ccccc4C3=O)cc2)n1 [Compound 2j, 4-(3-chloro-1,4-dioxo-1,4-dihydronaphthalen-2-ylamino)-N-(4-methylpyrimidin-2-yl)-benzenesulfonamide]
Second: Cc1cccc(NS(=O)(=O)c2ccc(NC3=C(Cl)C(=O)c4ccccc4C3=O)cc2)c1 [Compound 13c, 4-(3-chloro-1,4-dioxo-1,4-dihydro-naphthalen-2-ylamino)-N-m-tolyl-benzenesulfonamide]
The melting point of the first is higher: 246 to 248 °C for the first, 234 to 237 °C for the second.

First: CC1=C(Nc2ccc(S(=O)(=O)Nc3ccccn3)cc2)C(=O)c2ccccc2C1=O [Compound 2k, 4-(3-methyl-1,4-dioxo-1,4-dihydronaphthalen-2-ylamino)-N-(pyridin-2-yl)benzenesulfonamide]
Second: CN(C)C1=C(Nc2ccc(S(=O)(=O)Nc3ccccn3)cc2)C(=O)c2ccccc2C1=O [Compound 3a, 4-(3-(dimethylamino)-1,4-dioxo-1,4-dihydronaphthalen-2-ylamino)-N-(pyridin-2-yl)-benzenesulfonamide]
The melting point of the first is higher: 220 to 222 °C for the first, 118 to 120 °C for the second.

First: O=C(NS(=O)(=O)c1ccc(NC2=CC(=O)c3ccccc3C2=O)cc1)c1ccccc1 [Compound 2p, N-(4-(1,4-dioxo-1,4-dihydronaphthalen-2-ylamino)phenylsulfonyl)benzamide]
Second: O=C1C(Cl)=C(Nc2ccc(S(=O)(=O)Nc3ccccc3)cc2)C(=O)c2ccccc21 [Compound 13b, 4-(3-chloro-1,4-dioxo-1,4-dihydro-naphthalen-2-ylamino)-N-phenyl-benzenesulfonamide]
The melting point of the first is higher: 294 to 296 °C for the first, 220 to 223 °C for the second.

Compared with `CN(Cc1ccccc1)C1=C(Nc2ccc(S(=O)(=O)Nc3ccccn3)cc2)C(=O)c2ccccc2C1=O` [Compound 3b, 4-(3-(benzyl(methyl)amino)-1,4-dioxo-1,4-dihydronaphthalen-2-ylamino)-N-(pyridin-2-yl)-benzenesulfonamide], `O=C1C(Cl)=C(N(Cc2ccccc2)c2ccc(S(=O)(=O)Nc3ccccn3)cc2)C(=O)c2ccccc21` [Compound 6d, 4-(benzyl(3-chloro-1,4-dioxo-1,4-dihydronaphthalen-2-yl)amino)-N-(pyridin-2-yl)benzenesulfonamide] is lower in melting point: 135 to 140 °C for the first, 78 to 80 °C for the second.

First: CN1CCN(C2=C(Nc3ccc(S(=O)(=O)Nc4ccccn4)cc3)C(=O)c3ccccc3C2=O)CC1 [Compound 3c, 4-(3-(4-methylpiperazin-1-yl)-1,4-dioxo-1,4-dihydronaphthalen-2-ylamino)-N-(pyridin-2-yl)-benzenesulfonamide]
Second: O=C1C(Nc2ccc(S(=O)(=O)Nc3ccccn3)cc2)=C(N2CCOCC2)C(=O)c2ccccc21 [Compound 3e, 4-(3-morpholino-1,4-dioxo-1,4-dihydronaphthalen-2-ylamino)-N-(pyridin-2-yl)benzenesulfonamide]
The melting point of the first is higher: 222 to 224 °C for the first, 220 to 222 °C for the second.

Compared with `CN(C1=C(Cl)C(=O)c2ccccc2C1=O)c1ccc(S(=O)(=O)Nc2ccccn2)cc1` [Compound 6a, 4-((3-chloro-1,4-dioxo-1,4-dihydronaphthalen-2-yl)(methyl)amino)-N-(pyridin-2-yl)benzenesulfonamide], `CCN(C1=C(Cl)C(=O)c2ccccc2C1=O)c1ccc(S(=O)(=O)Nc2ccccn2)cc1` [Compound 6b, 4-((3-chloro-1,4-dioxo-1,4-dihydronaphthalen-2-yl)(ethyl)amino)-N-(pyridin-2-yl)benzenesulfonamide] is higher in melting point: 152 to 154 °C for the first, 180 to 182 °C for the second.

First: CCCCN(C1=C(Cl)C(=O)c2ccccc2C1=O)c1ccc(S(=O)(=O)Nc2ccccn2)cc1 [Compound 6c, 4-(butyl(3-chloro-1,4-dioxo-1,4-dihydronaphthalen-2-yl)amino)-N-(pyridin-2-yl)benzenesulfonamide]
Second: Cc1ccc(CN(C2=C(Cl)C(=O)c3ccccc3C2=O)c2ccc(S(=O)(=O)Nc3ccccn3)cc2)cc1 [Compound 6g, 4-((3-chloro-1,4-dioxo-1,4-dihydronaphthalen-2-yl)(4-methylbenzyl)amino)-N-(pyridin-2-yl)benzenesulfonamide]
The melting point of the first is higher: 181 to 183 °C for the first, 99 to 101 °C for the second.

First: O=C1C(Cl)=C(N(Cc2ccc([N+](=O)[O-])cc2)c2ccc(S(=O)(=O)Nc3ccccn3)cc2)C(=O)c2ccccc21 [Compound 6e, 4-((3-chloro-1,4-dioxo-1,4-dihydronaphthalen-2-yl)(4-nitrobenzyl)amino)-N-(pyridin-2-yl)benzenesulfonamide]
Second: O=C1C(Cl)=C(N(Cc2ccc(C(F)(F)F)cc2)c2ccc(S(=O)(=O)Nc3ccccn3)cc2)C(=O)c2ccccc21 [Compound 6h, 4-((3-chloro-1,4-dioxo-1,4-dihydronaphthalen-2-yl)(4-(trifluoromethyl)benzyl)amino)-N-(pyridin-2-yl)benzenesulfonamide]
The melting point of the first is lower: 80 to 82 °C for the first, 157 to 159 °C for the second.

First: O=C1C(Cl)=C(N(Cc2ccc3ccccc3c2)c2ccc(S(=O)(=O)Nc3ccccn3)cc2)C(=O)c2ccccc21 [Compound 6f, 4-((3-chloro-1,4-dioxo-1,4-dihydronaphthalen-2-yl)(naphthalen-2-ylmethyl)amino)-N-(pyridin-2-yl)benzenesulfonamide]
Second: COc1ccccc1NS(=O)(=O)c1ccc(NC2=C(Cl)C(=O)c3ccccc3C2=O)cc1 [Compound 13d, 4-(3-chloro-1,4-dioxo-1,4-dihydro-naphthalen-2-ylamino)-N-(2-methoxy-phenyl)-benzenesulfonamide]
The melting point of the first is lower: 165 to 167 °C for the first, 198 to 201 °C for the second.

Compared with `COc1cccc(NS(=O)(=O)c2ccc(NC3=C(Cl)C(=O)c4ccccc4C3=O)cc2)c1` [Compound 13e, 4-(3-chloro-1,4-dioxo-1,4-dihydro-naphthalen-2-ylamino)-N-(3-methoxy-phenyl)-benzenesulfonamide], `COc1ccc(NS(=O)(=O)c2ccc(NC3=C(Cl)C(=O)c4ccccc4C3=O)cc2)cc1` [Compound 13f, 4-(3-chloro-1,4-dioxo-1,4-dihydro-naphthalen-2-ylamino)-N-(4-methoxy-phenyl)-benzenesulfonamide] is higher in melting point: 213 to 216 °C for the first, 233 to 234 °C for the second.

Compared with `Cc1ccc(NS(=O)(=O)c2ccc(NC3=C(Cl)C(=O)c4ccccc4C3=O)cc2)cc1` [Compound 13g, 4-(3-chloro-1,4-dioxo-1,4-dihydro-naphthalen-2-ylamino)-N-p-tolyl-benzenesulfonamide], `COc1cc(NC2=C(Cl)C(=O)c3ccccc3C2=O)ccc1S(=O)(=O)Nc1ccc(C)cc1` [Compound 13i, 4-(3-chloro-1,4-dioxo-1,4-dihydro-naphthalen-2-ylamino)-2-methoxy-N-p-tolyl-benzenesulfonamide] is lower in melting point: 257 to 260 °C for the first, 186 to 189 °C for the second.

First: COc1cc(NC2=C(Cl)C(=O)c3ccccc3C2=O)ccc1S(=O)(=O)Nc1ccccc1C [Compound 13h, 4-(3-chloro-1,4-dioxo-1,4-dihydro-naphthalen-2-ylamino)-2-methoxy-N-o-tolyl-benzenesulfonamide]
Second: COc1cc(NC2=C(Cl)C(=O)c3ccccc3C2=O)ccc1S(=O)(=O)Nc1cccc(C)c1 [Compound 13k, 4-(3-chloro-1,4-dioxo-1,4-dihydro-naphthalen-2-ylamino)-2-methoxy-N-m-tolyl-benzenesulfonamide]
The melting point of the first is lower: 197 to 200 °C for the first, 264 to 267 °C for the second.

First: COc1ccc(NS(=O)(=O)c2ccc(NC3=C(Cl)C(=O)c4ccccc4C3=O)cc2OC)cc1 [Compound 13j, 4-(3-chloro-1,4-dioxo-1,4-dihydro-naphthalen-2-ylamino)-2-methoxy-N-(4-methoxy-phenyl)-benzenesulfonamide]
Second: N=C(N)NS(=O)(=O)c1ccc(NC2=C(Cl)C(=O)c3ccccc3C2=O)cc1 [YG1-084, N-carbamimidoyl-4-(3-chloro-1,4-dioxo-1,4-dihydronaphthalen-2-ylamino)benzene-sulfonamide]
The melting point of the first is lower: 165 to 167 °C for the first, 294 to 295 °C for the second.

With `Cc1cc(C)nc(NS(=O)(=O)c2ccc(NC3=C(Cl)C(=O)c4ccccc4C3=O)cc2)n1` [Compound 2g, 4-(3-chloro-1,4-dioxo-1,4-dihydronaphthalen-2-ylamino)-N-(4,6-dimethylpyrimidin-2-yl)benzenesulfonamide] the melting point was 210 °C (dec.).
In the case of `O=C1C=C(Nc2ccc(S(=O)(=O)Nc3ccccn3)cc2)C(=O)c2ccccc21` [Compound 2r, 4-(1,4-dioxo-1,4-dihydronaphthalen-2-ylamino)-N-(pyridin-2-yl)benzenesulfonamide], the melting point is reported as 286 °C (dec.).
